Assays:
Euphorbia geniculata = test: Growth-regulating action, preemergence, greenhouse (Example 35, Table 2); format: in vivo; conditions: for growth height relative: control 100
Source text: (§1) The vessels used for the experiments were plastic pots having a volume of 1,130 cm^3 (Table A) or paraffined paper cups having a volume of 170 cm^3 (Table B). The pots and cups were filled with a sandy loam. The seeds of the test plants-separated by species-were sown shallow. Preemergence treatment (soil treatment) was effected immediately after sowing and before germination of the seeds. Seeds lying on the surface came into contact with the active ingredients. Postemergence treatment (leaf treatment) took place at an average growth height of the plants (depending on the rate of growth) of from 6 to 10 cm. The substances were suspended, emulsified or dissolved in water as diluent and applied by means of fine nozzles. The vessels were kept in the greenhouse in a temperature range of 12° C. to 25° C., and were regularly sprinkler irrigated for the duration of the experiment. The observation period was 6 to 8 weeks.
Further experiments were carried out in the greenhouse under the condition described in Example 11. […] As the plants which were examined liked the warmth (Eupghorbia geniculate, Arachis hypogaea, Cynodon dactylon), they were kept at from 20°-30° C. Cynodon dactylon from seed was cut once and the young growth treated postemergence.

cotton = test: Induction of flowering and growth height of cotton, hydroponic (Example 18); format: in vivo; conditions: for Shoot length: 4 weeks; for No. of squares per vessel (3 plants): control 0, average of 3 vessels; for Shoot length rel.: control 100
Experimental: Cotton plants were subjected to hydroponic treatment under the same conditions as in Example 16. The active ingredients were added (1.25 mg/vessel=0.3 ppm and 5 mg/vessel=1.25 ppm) at a height of the plant of 15 to 18 cm. […] The results below are averages from 3 vessels, each of 3 plants.

sunflowers = test: Action on sunflowers (Example 24); format: in vivo; conditions: for Plant height relative: control 100
Source text: The active ingredients were applied both to the soil and to the leaves.

rye = test: Growth height of rye, greenhouse (Example 8); format: in vivo, rye (Petkuser); conditions: for Plant height relative: control 100
Source text: (§2) In the greenhouse, the four cereals wheat ("Opal" variety), rye ("Petkuser"), barley ("Villa") and oats ("Flamingskrone") were sown in plastic dishes 11.5 cm in diameter in a sandy loam adequately supplied with nutrients. The active ingredients were applied at various rates to the soil and to the leaves. When applied to the soil, the active ingredient were sprayed onto the surface of the soil on the day of sowing; in the case of leaf treatment, the leaves were sprayed in the usual manner at a growth height of the plants of 10 cm. During the 18 day growth period, the treated plants grew much more slowly than the untreated control, a fact later confirmed by measurements of the stem length. Measurements were taken of 100 plants from each series.
(§3) The prior art agent used for comparison purposes was N-2-chloroethyl-N,N,N-trimethylammonium chloride (CCC; German Printed Application DAS No. 1,294,734).

oats = test: Growth height of oats, greenhouse (Example 10); format: in vivo, oats (Flamingskrone); conditions: for Plant height relative: control 100
Source text: as §2, §3

barley = test: Growth height of barley, greenhouse (Example 9); format: in vivo, barley (Villa); conditions: for Plant height relative: control 100
Source text: as §2, §3

rice = test: Action on rice (Example 23); format: in vivo; conditions: leaf; for Plant height: 66 days; for Plant height relative: control 100
Experimental: At a growth height of 11 to 13 cm the active ingredients were sprayed onto the leaves in the usual manner. The plants were measured after 66 days.

Hordeum vulgare = test: Growth height of young cereal plants (Example 11, Table A); format: in vivo; conditions: soil treatment
Source text: as §1

Triticum aestivum = test: as above; format: in vivo
Source text: as §1

wheat = test: Growth height of wheat, greenhouse (Example 7); format: in vivo, wheat (Opal variety); conditions: for Plant height relative: control 100
Source text: as §2, §3

spring barley = test: Stem length, lateral shoots and yield in spring barley (Example 12); format: in vivo; conditions: 3 kg/ha
Experimental: To examine the effect of the various substances on spring barley up to the maturity stage of the plants, an experiment was carried out in large pots. The plants were grown in quartz sand (fertilized with 2 g N as ammonium nitrate in 3 doses, 1 g P2 O5 as secondary sodium phosphate, 1.5 g K2 O as potassium sulfate, 0.5 g MgO as magnesium sulfate, 10 ml of a solution of trace elements, and 10 mg of iron as an iron complex). […] The treated plants were up to 10% shorter than the control, and yields were also slightly up.

## CN(C)NC(=O)CCC(=O)O [drawing 439]
Euphorbia geniculata; 0.25 kg/ha
  Growth height: 12 cm
  growth height relative: 109
Euphorbia geniculata; 0.5 kg/ha
  Growth height: 12 cm
  growth height relative: 109
Euphorbia geniculata; 1.0 kg/ha
  Growth height: 10 cm
  growth height relative: 91

## C[N+](C)(C)CCCl.[Cl-] [CCC, N-2-chloroethyl-N,N,N-trimethylammonium chloride, reference compound]
cotton; 0.3 ppm
  Shoot length: 36.2 cm
  No. of squares per vessel (3 plants): 0
  Shoot length rel.: 76.7
cotton; 1.25 ppm
  Shoot length: 34.8 cm
  No. of squares per vessel (3 plants): 0
  Shoot length rel.: 73.8
cotton; 4 week growth period
  buds / squares: withered in the nascent stage and dropped off
sunflowers; leaf, 1.5 kg/ha
  Plant height: 38.0 cm
  Plant height relative: 99
sunflowers; leaf, 6.0 kg/ha
  Plant height: 32.5 cm
  Plant height relative: 85
sunflowers; soil, 3.0 kg/ha
  Plant height: 40.0 cm
  Plant height relative: 110
sunflowers; soil, 12.0 kg/ha
  Plant height: 36.0 cm
  Plant height relative: 99
rye; leaf, 0.125 kg/ha
  Plant height: 29.0 cm
  Plant height relative: 98.3
rye; leaf, 0.5 kg/ha
  Plant height: 28.0 cm
  Plant height relative: 94.9
rye; leaf, 1.0 kg/ha
  Plant height: 27.5 cm
  Plant height relative: 93.2
rye; leaf, 2.0 kg/ha
  Plant height: 27.5 cm
  Plant height relative: 93.2
rye; leaf, 4.0 kg/ha
  Plant height: 29.0 cm
  Plant height relative: 98.3
rye; soil, 0.5 kg/ha
  Plant height: 28.0 cm
  Plant height relative: 96.6
rye; soil, 1.0 kg/ha
  Plant height: 27.5 cm
  Plant height relative: 94.8
rye; soil, 2.0 kg/ha
  Plant height: 28.0 cm
  Plant height relative: 96.6
rye; soil, 6.0 kg/ha
  Plant height: 26.5 cm
  Plant height relative: 91.4
oats; leaf, 0.125 kg/ha
  Plant height: 28.0 cm
  Plant height relative: 100
oats; leaf, 0.5 kg/ha
  Plant height: 28.5 cm
  Plant height relative: 101.8
oats; leaf, 1.0 kg/ha
  Plant height: 28.0 cm
  Plant height relative: 100
oats; leaf, 2.0 kg/ha
  Plant height: 27.0 cm
  Plant height relative: 96.4
oats; leaf, 4.0 kg/ha
  Plant height: 25.5 cm
  Plant height relative: 91.1
oats; soil, 0.5 kg/ha
  Plant height: 28.0 cm
  Plant height relative: 100
oats; soil, 1.0 kg/ha
  Plant height: 28.0 cm
  Plant height relative: 100
oats; soil, 2.0 kg/ha
  Plant height: 27.0 cm
  Plant height relative: 96.4
oats; soil, 6.0 kg/ha
  Plant height: 26.0 cm
  Plant height relative: 92.9
barley; leaf, 0.125 kg/ha
  Plant height: 29.0 cm
  Plant height relative: 96.7
barley; leaf, 0.5 kg/ha
  Plant height: 28.5 cm
  Plant height relative: 95.0
barley; leaf, 1.0 kg/ha
  Plant height: 26.5 cm
  Plant height relative: 88.3
barley; leaf, 2.0 kg/ha
  Plant height: 27.0 cm
  Plant height relative: 90.0
barley; leaf, 4.0 kg/ha
  Plant height: 27.0 cm
  Plant height relative: 90.0
barley; soil, 0.5 kg/ha
  Plant height: 28.0 cm
  Plant height relative: 88.9
barley; soil, 1.0 kg/ha
  Plant height: 27.0 cm
  Plant height relative: 85.7
barley; soil, 2.0 kg/ha
  Plant height: 26.0 cm
  Plant height relative: 82.5
barley; soil, 6.0 kg/ha
  Plant height: 25.0 cm
  Plant height relative: 79.4
rice; 1.0 kg/ha
  Plant height: 38.0 cm
  Plant height relative: 93.6
rice; 2.0 kg/ha
  Plant height: 40.5 cm
  Plant height relative: 99.8
rice; 4.0 kg/ha
  Plant height: 38.5 cm
  Plant height relative: 94.8
rice; 6.0 kg/ha
  Plant height: 40.0 cm
  Plant height relative: 98.5
Hordeum vulgare; 0.5 kg/ha
  Growth height: 36 cm
Hordeum vulgare; 1.0 kg/ha
  Growth height: 31 cm
Hordeum vulgare; 2.0 kg/ha
  Growth height: 33 cm
Triticum aestivum; leaf treatment, 0.5 kg/ha
  Growth height: 40 cm
Triticum aestivum; leaf treatment, 1.0 kg/ha
  Growth height: 40 cm
Triticum aestivum; leaf treatment, 2.0 kg/ha
  Growth height: 40 cm
Triticum aestivum; soil treatment, 0.5 kg/ha
  Growth height: 40 cm
Triticum aestivum; soil treatment, 1.0 kg/ha
  Growth height: 40 cm
Triticum aestivum; soil treatment, 2.0 kg/ha
  Growth height: 33 cm
wheat; leaf, 0.125 kg/ha
  Plant height: 28.0 cm
  Plant height relative: 93.3
wheat; leaf, 0.5 kg/ha
  Plant height: 26.0 cm
  Plant height relative: 86.7
wheat; leaf, 1.0 kg/ha
  Plant height: 26.0 cm
  Plant height relative: 86.7
wheat; leaf, 2.0 kg/ha
  Plant height: 23.0 cm
  Plant height relative: 76.7
wheat; leaf, 4.0 kg/ha
  Plant height: 23.0 cm
  Plant height relative: 76.7
wheat; soil, 0.5 kg/ha
  Plant height: 26.0 cm
  Plant height relative: 83.9
wheat; soil, 1.0 kg/ha
  Plant height: 24.5 cm
  Plant height relative: 79.0
wheat; soil, 2.0 kg/ha
  Plant height: 22.5 cm
  Plant height relative: 72.6
wheat; soil, 6.0 kg/ha
  Plant height: 22.0 cm
  Plant height relative: 71.0
Spring barley
  Ear weight: 95.0 g
  No. of lateral shoots: 99
  Stem length: 74.2 cm
Spring barley; control 100
  Ear weight relative: 105.1
  No. of lateral shoots relative: 106.5
  Stem length relative: 96.5

## FC(F)(F)c1cccc(N2C3C4CC(C5N=NC45)C32)c1 (centres unmarked) [drawing 438]
Euphorbia geniculata; 0.25 kg/ha
  Growth height: 6 cm
  growth height relative: 54
Euphorbia geniculata; 0.5 kg/ha
  Growth height: 5 cm
  growth height relative: 45
Euphorbia geniculata; 1.0 kg/ha
  Growth height: 3 cm
  growth height relative: 27

Reference: patent publication US4257941A, “Polycyclic nitrogen-containing compounds” (BASF Aktiengesellschaft, priority 1976, dated 1981)
